Literature values in article PMC7238120, “Strong and Selective Inhibitory Effects of the Biflavonoid Selamariscina A against CYP2C8 and CYP2C9 Enzyme Activities in Human Liver Microsomes” (Pharmaceutics, 2020).
Like-named read-outs stand apart in the source and are kept apart here.

Conditions: cited from earlier work

O=c1cc(-c2ccc(O)c(-c3c(O)cc(O)c4c(=O)cc(-c5ccc(O)cc5)oc34)c2)oc2cc(O)cc(O)c12 [amentoflavone]
Cmax (liposome-based Selaginella doderleinii Hieron extracts 200 mg/kg, read-out: Cmax after liposome-based extract): 220 nM | Cmax, times higher than control (liposome-based extracts 200 mg/kg versus control): 5.4 times | Maximum concentration in rat blood (single oral dose of Selaginella doderleinii Hieron extracts 200 mg/kg): 0.041 µM | Maximum concentration in rat blood (single oral dose of Selaginella doderleinii Hieron extracts 600 mg/kg): 0.063 µM
